Measurements reported in patent publication US12624044B2, “SMARCA degraders and uses thereof” (Kymera Therapeutics, Inc., priority 2019, dated 2026).

Target: SMARCA2 (Homo sapiens, UniProt P51531)
Assay: MSD SMARCA2 degradation in NCI-H1299 cell line (24 h)
Format: cell-based
Set-up: HC: NCI-H1299 cells treated with DMSO; host or cells: NCI-H1299
Settings: for DC50: NCI-H1299 cells, read-out: SMARCA2 MSD H1299 degradation 24 h: External Abs-DC50; for Dmax: NCI-H1299, NCI-H1299 cells
Summary of the method: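 NCI-H1299 cells treated 24 h with a 3-fold, 9-point compound dilution series, then lysed in RIPA with protease inhibitor. SMARCA2 in lysate-coated MSD plates detected with rabbit anti-SMARCA2 (0.3 ug/ml) and SULFO-TAG secondary. Relative SMARCA2 level normalized between DMSO-treated H1299 cells and SMARCA2-negative A2780 cells; Dmax % binned A–D.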

Chain of SMARCA2 (P51531 whole entry): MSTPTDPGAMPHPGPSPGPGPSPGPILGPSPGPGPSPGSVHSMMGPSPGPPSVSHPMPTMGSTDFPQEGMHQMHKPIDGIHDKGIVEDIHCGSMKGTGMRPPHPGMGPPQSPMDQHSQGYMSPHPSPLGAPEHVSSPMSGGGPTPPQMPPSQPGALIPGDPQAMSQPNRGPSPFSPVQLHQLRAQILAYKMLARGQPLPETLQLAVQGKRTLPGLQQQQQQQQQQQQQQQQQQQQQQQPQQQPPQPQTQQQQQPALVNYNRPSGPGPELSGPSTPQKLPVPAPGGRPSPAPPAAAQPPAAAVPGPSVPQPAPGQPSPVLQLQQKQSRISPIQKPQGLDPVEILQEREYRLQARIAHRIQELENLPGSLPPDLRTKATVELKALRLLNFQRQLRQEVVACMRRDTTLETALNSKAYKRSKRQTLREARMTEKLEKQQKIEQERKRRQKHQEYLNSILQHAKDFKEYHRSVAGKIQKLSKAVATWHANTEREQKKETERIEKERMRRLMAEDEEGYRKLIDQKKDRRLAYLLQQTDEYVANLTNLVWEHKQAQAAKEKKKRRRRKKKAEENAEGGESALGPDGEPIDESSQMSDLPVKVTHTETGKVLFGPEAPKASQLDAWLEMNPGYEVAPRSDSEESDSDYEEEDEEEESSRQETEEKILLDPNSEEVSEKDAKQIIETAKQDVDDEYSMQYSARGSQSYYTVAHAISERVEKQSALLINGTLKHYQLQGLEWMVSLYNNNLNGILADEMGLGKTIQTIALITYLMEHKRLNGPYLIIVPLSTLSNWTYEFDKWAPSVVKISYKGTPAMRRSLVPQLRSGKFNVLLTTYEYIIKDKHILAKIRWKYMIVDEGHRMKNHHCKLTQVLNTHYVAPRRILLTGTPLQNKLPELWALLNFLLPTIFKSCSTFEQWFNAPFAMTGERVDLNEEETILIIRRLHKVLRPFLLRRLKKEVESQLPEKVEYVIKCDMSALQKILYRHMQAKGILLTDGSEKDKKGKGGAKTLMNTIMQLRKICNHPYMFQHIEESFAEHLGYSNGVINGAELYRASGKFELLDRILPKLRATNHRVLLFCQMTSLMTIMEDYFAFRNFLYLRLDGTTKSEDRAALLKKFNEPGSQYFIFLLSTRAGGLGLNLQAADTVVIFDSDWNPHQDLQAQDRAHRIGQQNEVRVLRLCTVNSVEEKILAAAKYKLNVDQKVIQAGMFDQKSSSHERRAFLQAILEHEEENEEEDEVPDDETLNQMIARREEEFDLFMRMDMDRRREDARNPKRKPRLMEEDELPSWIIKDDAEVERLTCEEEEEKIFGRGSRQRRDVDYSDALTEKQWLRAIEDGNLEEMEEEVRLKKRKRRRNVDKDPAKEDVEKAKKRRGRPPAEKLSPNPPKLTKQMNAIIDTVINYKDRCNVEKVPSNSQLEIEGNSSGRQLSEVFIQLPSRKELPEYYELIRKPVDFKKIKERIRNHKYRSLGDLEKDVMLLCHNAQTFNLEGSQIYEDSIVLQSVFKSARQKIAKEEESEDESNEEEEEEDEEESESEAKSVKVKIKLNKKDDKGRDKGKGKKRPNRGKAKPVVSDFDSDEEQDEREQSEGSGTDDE

| Compound | DC50 [nM] | Dmax [%] |
| --- | --- | --- |
| CC(c1ccc(C(=O)NCCOCCOCCCc2ccc3c(c2)n(C)c(=O)n3C2CCC(=O)NC2=O)cc1)n1cc(-c2cc(-c3ccccc3O)nnc2N)cn1 (stereo not drawn) [I-16] | > 1000 |  |
| Cn1c(=O)n(C2CCC(=O)NC2=O)c2cccc(CCCOC3CCN(Cc4ccc(N5CCN(c6cc(-c7ccccc7O)nnc6N)CC5)cc4)CC3)c21 (stereo not drawn) [I-115] | 100 to 500 | 70 to 90 |
| Cn1c(=O)n(C2CCC(=O)NC2=O)c2ccc(CCCCCOc3ccc(CN4CCN(c5cc(-c6ccccc6O)nnc5N)CC4)cc3)cc21 (stereo not drawn) [I-85] | > 1000 | < 50 |
| Cn1c(=O)n(C2CCC(=O)NC2=O)c2ccc(CCCOCCOCCN3CCN(Cc4ccc(-c5cc(-c6ccccc6O)nnc5N)cc4)CC3)cc21 (stereo not drawn) [I-135] | 100 to 500 | 50 to 70 |
| Cn1c(=O)n(C2CCC(=O)NC2=O)c2ccc(CCCCCCCCCCCOc3cccc(CN4CCN(c5cc(-c6ccccc6O)nnc5N)CC4)c3)cc21 (stereo not drawn) [I-145] | > 1000 | < 50 |
| COc1cc(C(=O)NCCCCCCCNCc2ccc(N3CCN(c4cc(-c5ccccc5O)nnc4N)CC3)cc2)ccc1NC(=O)[C@@H]1N[C@@H](CC(C)(C)C)[C@](C#N)(c2ccc(Cl)cc2F)[C@H]1c1cccc(Cl)c1F [I-236] | > 1000 | < 50 |
| Cn1c(=O)n(C2CCC(=O)NC2=O)c2cccc(CCCCN3CCC[C@@H](Cn4cc(-c5cc(-c6ccccc6O)nnc5N)cn4)C3)c21 (stereo partly drawn) [I-189] | < 100 | > 90 |
| Cn1c(=O)n(C2CCC(=O)NC2=O)c2cccc(CCCCCCCN3CCC(Cn4cc(-c5cc(-c6ccccc6O)nnc5N)cn4)CC3)c21 (stereo not drawn) [I-149, 3-[4-[7-[4-[[4-[3-amino-6-(2-hydroxyphenyl)pyridazin-4-yl]pyrazol-1-yl]methyl]-1-piperidyl]heptyl]-3-methyl-2-oxo-benzimidazol-1-yl]piperidine-2,6-dione] | < 100 | > 90 |
| Cn1c(=O)n(C2CCC(=O)NC2=O)c2ccc(CCN3CCN(Cc4cnc(N5C6CCC5CN(c5cc(-c7ccccc7O)nnc5N)C6)nc4)CC3)cc21 (stereo not drawn) [I-165] | < 100 | > 90 |
| Cn1c(=O)n(C2CCC(=O)NC2=O)c2ccc(CCCN3CCO[C@@H](CNCc4ccc(N5CCN(c6cc(-c7ccccc7O)nnc6N)CC5)cc4)C3)cc21 (stereo partly drawn) [I-120] | 501 to 1000 | 50 to 70 |
| Nc1nnc(-c2ccccc2O)cc1N1CCN(c2ccc(CNCCOCCOCCCc3ccc4c(c3)oc(=O)n4C3CCC(=O)NC3=O)cc2)CC1 (stereo not drawn) [I-126] | 100 to 500 | > 90 |
| Cn1c(=O)n(C2CCC(=O)NC2=O)c2cccc(CCCOc3cccc(CN4CCN(c5cc(-c6ccccc6O)nnc5N)CC4)c3)c21 (stereo not drawn) [I-95] | > 1000 | < 50 |
| Cn1c(=O)n(C2CCC(=O)NC2=O)c2cccc(CN3CCCC(n4cc(-c5cc(-c6ccccc6O)nnc5N)cn4)C3)c21 (stereo not drawn) [I-168] | 100 to 500 | 50 to 70 |
| Cn1c(=O)n(C2CCC(=O)NC2=O)c2cccc(C#CCN3CCO[C@H](CNCc4ccc(N5CCN(c6cc(-c7ccccc7O)nnc6N)CC5)cc4)C3)c21 (stereo partly drawn) [I-118] | > 1000 | < 50 |
| Cn1c(=O)n(C2CCC(=O)NC2=O)c2cccc(CCCCCCCCN3CCC(Cn4cc(-c5cc(-c6ccccc6O)nnc5N)cn4)CC3)c21 (stereo not drawn) [I-150] | < 100 | > 90 |
| COc1cc(C(=O)NCCCN2CCN(Cc3ccc(-c4cc(-c5ccccc5O)nnc4N)cc3)CC2)ccc1NC(=O)[C@@H]1N[C@@H](CC(C)(C)C)[C@](C#N)(c2ccc(Cl)cc2F)[C@H]1c1cccc(Cl)c1F [I-232, (2R,3S,4R,5S)—N-(4-((3-(4-(4-(3-amino-6-(2-hydroxyphenyl)pyridazin-4-yl)benzyl)piperazin-1-yl)propyl)carbamoyl)-2-methoxyphenyl)-3-(3-chloro-2-fluorophenyl)-4-(4-chloro-2-fluorophenyl)-4-cyano-5-neopentylpyrrolidine-2-carboxamide] | > 1000 | < 50 |
| Cn1c(=O)n(C2CCC(=O)NC2=O)c2ccc(CCCCOc3ccc(CN4CCN(c5cc(-c6ccccc6O)nnc5N)CC4)cc3)cc21 (stereo not drawn) [I-84] | > 1000 | < 50 |
| Cn1c(=O)n(C2CCC(=O)NC2=O)c2ccc(CCCCCCCN3CCC(Cn4cc(-c5cc(-c6ccccc6O)nnc5N)cn4)CC3)cc21 (stereo not drawn) [I-146] | < 100 | 70 to 90 |
| Cn1c(=O)n(C2CCC(=O)NC2=O)c2ccc(CCCOCCOCCOCCOCCOCCNC(=O)CCCCCCCCOc3ccnc(N4C[C@H]5C[C@@H]4CN5/C=C/C(=O)c4ccccc4O)c3)cc21 (stereo partly drawn) [I-22] | > 1000 |  |
| CN(Cc1ccc(N2CCN(c3cc(-c4ccccc4O)nnc3N)CC2)cc1)CC1CCN(Cc2cccc3c2n(C)c(=O)n3C2CCC(=O)NC2=O)CC1 (stereo not drawn) [I-132, 3-(4-((4-(((4-(4-(3-amino-6-(2-hydroxyphenyl)pyridazin-4-yl)piperazin-1-yl)benzyl)(methyl)amino)methyl)piperidin-1-yl)methyl)-3-methyl-2-oxo-2,3-dihydro-1H-benzo[d]imidazol-1-yl)piperidine-2,6-dione] | < 100 | > 90 |
| CN(CCCc1cnc(N2C3CCC2CN(c2cc(-c4ccccc4O)nnc2N)C3)nc1)CCCc1ccc2c(c1)n(C)c(=O)n2C1CCC(=O)NC1=O (stereo not drawn) [I-161] | < 100 | > 90 |
| Cc1ncsc1-c1ccc(CNC(=O)[C@@H]2C[C@@H](O)CN2C(=O)[C@@H](NC(=O)COCCOCCOCCOCCOCCNC(=O)c2ccc(C(C)n3cc(-c4cc(-c5ccccc5O)nnc4N)cn3)cc2)C(C)(C)C)cc1 (stereo partly drawn) [I-226] | > 1000 |  |
| Cc1ncsc1-c1ccc(CNC(=O)[C@@H]2C[C@@H](O)CN2C(=O)[C@@H](NC(=O)COCCOCCOCCNC(=O)CCCOc2cccc(N3C[C@H]4C[C@@H]3CN4/C=C/C(=O)c3ccccc3O)n2)C(C)(C)C)cc1 [I-218] | > 1000 |  |
| Cn1c(=O)n(C2CCC(=O)NC2=O)c2ccc(CCCOCCCOCCN3CCN(Cc4ccc(-c5cc(-c6ccccc6O)nnc5N)cc4)CC3)cc21 (stereo not drawn) [I-136] | 100 to 500 | 50 to 70 |
| Cn1c(=O)n(C2CCC(=O)NC2=O)c2cccc(CN3CCC(n4cc(-c5cc(-c6ccccc6O)nnc5N)cn4)CC3)c21 (stereo not drawn) [I-173] | > 1000 | < 50 |
| O=C(CCCCCCCCOc1ccc(N2C[C@H]3C[C@@H]2CN3/C=C/C(=O)c2ccccc2O)nc1)NCCOCCOCCOCCNc1cccc2c1C(=O)N(C1CCC(=O)NC1=O)C2=O (stereo partly drawn) [I-1] | > 1000 |  |

Second part, the molecule after the results:

| DC50 [nM] | Dmax [%] | Compound |
| --- | --- | --- |
| > 1000 | 50 to 70 | Cn1c(=O)n(C2CCC(=O)NC2=O)c2ccc(CCCCCCc3cn(Cc4cccc(N5C[C@H]6C[C@@H]5CN6/C=C/C(=O)c5ccccc5O)n4)nn3)cc21 (stereo partly drawn) [I-46, 3-(5-(6-(1-((6-((1R,4R)-5-((E)-3-(2-hydroxyphenyl)-3-oxoprop-1-en-1-yl)-2,5-diazabicyclo[2.2.1]heptan-2-yl)pyridin-2-yl)methyl)-1H-1,2,3-triazol-4-yl)hexyl)-3-methyl-2-oxo-2,3-dihydro-1H-benzo[d]imidazol-1-yl)piperidine-2,6-dione] |
| > 1000 | 70 to 90 | O=C1CCC(N2C(=O)c3cccc(OCCCc4cn(CCCc5cccc(N6C[C@H]7C[C@@H]6CN7/C=C/C(=O)c6ccccc6O)n5)nn4)c3C2=O)C(=O)N1 (stereo partly drawn) [I-70] |
| > 1000 | < 50 | Cn1c(=O)n(C2CCC(=O)NC2=O)c2cccc(C#CCCCCCc3cn(Cc4cccc(N5C[C@H]6C[C@@H]5CN6/C=C/C(=O)c5ccccc5O)n4)nn3)c21 (stereo partly drawn) [I-67] |
| > 1000 |  | Cn1c(=O)n(C2CCC(=O)NC2=O)c2ccc(CCCOCCOCCNC(=O)CCCCCCCCOc3ccc(N4C[C@H]5C[C@@H]4CN5/C=C/C(=O)c4ccccc4O)nc3)cc21 (stereo partly drawn) [I-8] |
| > 1000 | < 50 | O=C1CCC(n2c(=O)n(CCCCCCCCc3cn(Cc4cccc(N5C[C@H]6C[C@@H]5CN6/C=C/C(=O)c5ccccc5O)n4)nn3)c3ccccc32)C(=O)N1 (stereo partly drawn) [I-58] |
| > 1000 |  | CN1C(=O)CCC(N2C(=O)c3cccc(OCCCCc4cn(Cc5cccc(N6C[C@H]7C[C@@H]6CN7/C=C/C(=O)c6ccccc6O)n5)nn4)c3C2=O)C1=O (stereo partly drawn) [I-41] |
| > 1000 | < 50 | Cn1c(=O)n(C2CCC(=O)NC2=O)c2cccc(CCCCCCc3cn(Cc4cccc(N5C[C@H]6C[C@@H]5CN6/C=C/C(=O)c5ccccc5O)n4)nn3)c21 (stereo partly drawn) [I-51] |
| > 1000 |  | O=C1CCC(N2C(=O)c3cccc(OCc4cn(Cc5cccc(N6C[C@H]7C[C@@H]6CN7/C=C/C(=O)c6ccccc6O)n5)nn4)c3C2=O)C(=O)N1 (stereo partly drawn) [I-34] |
| > 1000 | < 50 | O=C1CCC(n2c(=O)n(CCCCCc3cn(Cc4cccc(N5C[C@H]6C[C@@H]5CN6/C=C/C(=O)c5ccccc5O)n4)nn3)c3ccccc32)C(=O)N1 (stereo partly drawn) [I-55, 3-[3-[5-[1-[[6-[(1R,4R)-5-[(E)-3-(2-hydroxyphenyl)-3-oxo-prop-1-enyl]-2,5-diazabicyclo[2.2.1]heptan-2-yl]-2-pyridyl]methyl]triazol-4-yl]pentyl]-2-oxo-benzimidazol-1-yl]piperidine-2,6-dione] |
| 501 to 1000 | > 90 | O=C1CCC(N2C(=O)c3cccc(OCCCCc4cn(Cc5cccc(N6C[C@H]7C[C@@H]6CN7/C=C/C(=O)c6ccccc6O)n5)nn4)c3C2=O)C(=O)N1 (stereo partly drawn) [I-37] |
| > 1000 |  | O=C1CCC(N2C(=O)c3cccc(OCCOCCCc4cn(Cc5cccc(N6C[C@H]7C[C@@H]6CN7/C=C/C(=O)c6ccccc6O)n5)nn4)c3C2=O)C(=O)N1 (stereo partly drawn) [I-40] |
| > 1000 |  | Cn1c(=O)n(C2CCC(=O)NC2=O)c2ccc(CCCNCc3cn(Cc4cccc(N5C[C@H]6C[C@@H]5CN6/C=C/C(=O)c5ccccc5O)n4)nn3)cc21 (stereo partly drawn) [I-29] |
| > 1000 |  | Cn1c(=O)n(C2CCC(=O)NC2=O)c2ccc(CCCOCCOCCNC(=O)CCCOc3cccc(N4C[C@H]5C[C@@H]4CN5/C=C/C(=O)c4ccccc4O)n3)cc21 (stereo partly drawn) [I-25] |
| > 1000 | < 50 | Cn1c(=O)n(C2CCC(=O)NC2=O)c2cccc(CNCCCc3cn(Cc4cccc(N5C[C@H]6C[C@@H]5CN6/C=C/C(=O)c5ccccc5O)n4)nn3)c21 (stereo partly drawn) [I-79] |
